# Results as given in patent US8901147B2, “Bi-heteroaryl compounds as Vps34 inhibitors” (Novartis AG, priority 2010, dated 2014).
# pIC50: −log10 of the molar value.
# Biological target: recombinant human Vps34 (Homo sapiens, UniProt Q8NEB9)
# Experiment: Vps34 KinaseGlo assay
# Assay type: biochemical
# Settings: KinaseGlo luminescence ATP detection; PI/OG substrate; 1 μM ATP; room temperature; 8 concentrations, n=2
# Method: It was then resuspended in 3% OctylGlucoside by vortexing and stored at 4° C. 5 μL of a mix of PI/OG with recombinant human Vps34 were added. Kinase reactions were started by addition of 5 μl of ATP-mix containing in a final volume 10 μL 10 mM TRIS-HCl pH 7.5, 3 mM MgCl2, 50 mM NaCl, 0.05% CHAPS, 1 mM DTT and 1 μM ATP, and occurred at room temperature. Reactions were stopped with 10 μl of KinaseGlo and plates were read 10 minutes later in a Synergy2 reader using an integration time of 0.1 seconds per well.
# Sequence of recombinant human Vps34 (Q8NEB9 whole entry): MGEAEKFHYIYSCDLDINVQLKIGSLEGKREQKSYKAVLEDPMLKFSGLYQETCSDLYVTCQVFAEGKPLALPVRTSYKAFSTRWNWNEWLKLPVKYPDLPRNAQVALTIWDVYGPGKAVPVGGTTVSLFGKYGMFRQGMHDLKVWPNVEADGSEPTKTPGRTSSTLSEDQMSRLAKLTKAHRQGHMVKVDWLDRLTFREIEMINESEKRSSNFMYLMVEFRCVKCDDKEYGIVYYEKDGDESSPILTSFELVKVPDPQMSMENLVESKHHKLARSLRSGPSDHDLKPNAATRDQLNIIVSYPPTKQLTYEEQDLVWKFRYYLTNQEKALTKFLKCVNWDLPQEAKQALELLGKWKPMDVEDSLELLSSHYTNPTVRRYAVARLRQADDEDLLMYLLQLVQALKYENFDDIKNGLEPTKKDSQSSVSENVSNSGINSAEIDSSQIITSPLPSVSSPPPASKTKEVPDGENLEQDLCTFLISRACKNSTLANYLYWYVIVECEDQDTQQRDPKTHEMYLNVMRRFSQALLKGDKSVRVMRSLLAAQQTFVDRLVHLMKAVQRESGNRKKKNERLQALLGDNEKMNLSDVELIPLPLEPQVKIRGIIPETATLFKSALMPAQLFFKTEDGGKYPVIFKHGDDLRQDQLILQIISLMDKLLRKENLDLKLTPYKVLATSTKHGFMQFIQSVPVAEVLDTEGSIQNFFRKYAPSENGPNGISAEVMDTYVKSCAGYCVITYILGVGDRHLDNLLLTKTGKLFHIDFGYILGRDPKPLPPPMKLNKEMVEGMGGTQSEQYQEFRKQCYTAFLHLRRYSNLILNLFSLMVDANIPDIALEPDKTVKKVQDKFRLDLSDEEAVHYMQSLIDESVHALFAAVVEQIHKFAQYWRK
row,Molecule,pIC50
1,"CC(C)Nc1ncc(-c2ccnc(Nc3ccncc3)n2)c(CC2CC2)n1 [Example 12a, 4′-Cyclopropylmethyl-N^2′-isopropyl-N^2-pyridin-4-yl-[4,5′]bipyrimidinyl-2,2′-diamine]",7.46
2,"CNc1ncc(-c2ccnc(NC3CCOCC3)n2)c(CC2CC2)n1 [Example 14g, 4′-(cyclopropylmethyl)-N^2′-methyl-N^2-(tetrahydro-2H-pyran-4-yl)-4,5′-bipyrimidine-2,2′-diamine]",6.40
3,"CNc1ncc(-c2ccnc(NC3CCC(O)CC3)n2)c(CC2CC2)n1 (stereo not drawn) [Example 14k, 4-(4′-(cyclopropylmethyl)-2′-(methylamino)-4,5′-bipyrimidin-2-ylamino)cyclohexanol]",6.07
4,"CCc1ncc(-c2ccnc(N[C@H]3CC[C@H](O)CC3)n2)c(CC2CC2)n1 [Example 6d, (1r,4r)-4-(4′-(cyclopropylmethyl)-2′-ethyl-4,5′-bipyrimidin-2-ylamino)cyclohexanol]",6.14
5,"c1cc(Nc2nccc(-c3cnc(NC4CCCCC4)nc3CC3CC3)n2)ccn1 [Example 12b, N^2′-cyclohexyl-4′-(cyclopropylmethyl)-N^2-(pyridin-4-yl)-4,5′-bipyrimidine-2,2′-diamine]",6.24
6,"COc1ncc(-c2ccnc(NC3CCC(O)CC3)n2)c(CC2CC2)n1 (stereo not drawn) [Example 6f, 4-(4′-(cyclopropylmethyl)-2′-methoxy-4,5′-bipyrimidin-2-ylamino)cyclohexanol]",5.40
7,"(S)-1-[4′-Cyclopropylmethyl-2-(pyridin-4-ylamino)-[4,5]bipyrimidinyl-2′-ylamino]-propan-2-ol [Example 10k]",6.56
8,"CC(C)CNc1ncc(-c2ccnc(Nc3ccncc3)n2)c(CC2CC2)n1 [Example 10d, 4′-(cyclopropylmethyl)-N^2′-isobutyl-N^2-(pyridin-4-yl)-4,5′-bipyrimidine-2,2′-diamine]",7.14
9,"CC(C)(O)CNc1ncc(-c2ccnc(Nc3ccncc3)n2)c(C(F)(F)F)n1 [Example 24, 2-methyl-1-(2-(pyridin-4-ylamino)-4′-(trifluoromethyl)-4,5′-bipyrimidin-2′-ylamino)propan-2-ol]",7.02
10,"CC(C)(C)CNc1ncc(-c2ccnc(Nc3ccncc3)n2)c(CC2CC2)n1 [Example 10r, 4′-(cyclopropylmethyl)-N2′-neopentyl-N2-(pyridin-4-yl)-4,5′-bipyrimidine-2,2′-diamine]",7.07
11,"c1cc(Nc2nccc(-c3cncnc3CC3CC3)n2)ccn1 [Example 10v, 4′-(cyclopropylmethyl)-N-(pyridin-4-yl)-4,5′-bipyrimidin-2-amine]",6.67
12,"CNc1ncc(-c2ccnc(NC3CCCCC3)n2)c(CC2CC2)n1 [Example 14e, N^2-Cyclohexyl-4′-cyclopropylmethyl-N^2′-methyl-[4,5′]bipyrimidinyl-2,2′-diamine]",5.96
13,"CCc1nc(NCC(C)(C)O)ncc1-c1ccnc(Nc2ccc(C#N)cc2)n1 [Example 37a, 4-(4′-ethyl-2′-(2-hydroxy-2-methylpropylamino)-4,5′-bipyrimidin-2-ylamino)benzonitrile]",7.51
14,"Nc1ncc(-c2ccnc(Nc3ccccn3)n2)c(CC2CC2)n1 [Example 15e, 4′-(cyclopropylmethyl)-N^2-(pyridin-2-yl)-4,5′-bipyrimidine-2,2′-diamine]",6.71
15,"Nc1ncc(-c2ccnc(NCc3ccco3)n2)c(CC2CC2)n1 [Example 15k, 4′-(cyclopropylmethyl)-N^2-(furan-2-ylmethyl)-4,5′-bipyrimidine-2,2′-diamine]",6.11
